The source of these data is PMC11472058, “Trinucleotide cap analogs with triphosphate chain modifications: synthesis, properties, and evaluation as mRNA capping reagents” (Nucleic Acids Research, 2024).

The experiment deals with C57BL/6 mice. The experiment in a line: In vivo translation efficacy of hEPO-encoding mRNA-LNPs (serum hEPO ELISA). Conditions: 1 μg mRNA i.v., 4, 8, 24 and 48 h. As to the method: Two reporters were selected to determine in vivo protein production: firefly luciferase (FLuc) and human erythropoietin (hEPO). The mRNA encoding each gene was obtained by IVT using T7 RNA polymerase for co-transcriptional capping with m^7Gppp^5′SAmpG and m^7GpppAmpG as the reference cap structure. 500 μl or 1000 μl of the IVT mix (for obtaining mRNA encoding hEPO or FLuc, respectively) contained following components at indicated final concentration: transcription buffer with 2 mM spermidine and Bis-Tris pH 6.5, 1 U/μl RNase inhibitor (RiboLock, ThermoFisher Scientific), 5 mM ATP, CTP and UTP, 4 mM GTP, 10 mM DTT, 25 mM MgCl2, 0.002 U/μl inorganic pyrophosphatase (ThermoFisher Scientific), 10 mM m^7GpppAmpG or m^7Gppp^5’SAmpG, 40 ng/μl linearized plasmid as the DNA template and 0.125 μg/μl T7 RNA polymerase (in-house prepared). All components were gently mixed by pipetting and incubated for one hour at 37°C. After DNA template removal, obtained mRNA was initially purified using oligo(dT)25 resin, as previously described, and concentrated by ultrafiltration (Amicon Ultra-15 50K or 100K, Millipore) prior loading on preparative column. […] Eluate quality was analyzed on 1 × TBE 1.2% agarose gel, and the fractions containing mRNA of the highest purity were combined, desalted by ultrafiltration (Amicon Ultra-15 50K or 100K, Millipore), and precipitated. […]
In general terms: ELISA stands for enzyme-linked immunosorbent assay.

SMILES strings stand for the structures.

As for `CO[C@@H]1[C@H](OP(=O)(O)OC[C@H]2O[C@@H](n3cnc4c(=O)[nH]c(N)nc43)[C@H](O)[C@@H]2O)[C@@H](CSP(=O)([O-])OP(=O)(O)OP(=O)(O)OC[C@H]2O[C@@H](n3c[n+](C)c4c(O)nc(N)nc43)[C@H](O)[C@@H]2O)O[C@H]1n1cnc2c(N)ncnc21` [Compound 8, m^7Gppp^5’SAmpG], the “serum hEPO protein expression versus m^7GpppAmpG-capped mRNA (in words)” value is recorded as “slight increase in protein expression” (MC3 LNP) and “no significant differences” (SM-102 LNP).
